Measurements published in US20130324555A1, “Method of use of pharmaceutical formulations for the treatment of apicomplexan diseases in animals” (priority 2012, published 2013).
Entries after “also recorded” stand apart in the source; their conditions may differ. Where two headings read alike, the source gives them in different places.

Experiments:
T. gondii tachyzoites = assay: In vitro inhibition of T. gondii tachyzoites (RH-YFP fluorescence / [3H]-uracil incorporation); type: cell-based; settings: for IC50 / IC90: Toxoplasma gondii; for activity against T. gondii tachyzoites, in words: only MIC50≦1 μM considered active
Experimental: Determination of the anti-apicomplexan activity of Compounds of Formula I may be determined by one skilled in the art. Parasite proliferation was monitored by using stably transfected type I RH-YFP parasites, which constitutively express Yellow Florescent Protein. Proliferation also was tested using a [^3H]-Uracil incorporation assay, as Uracil is incorporated into nucleic acids of T. gondii tachyzoites, but not mammalian cells, as they divide. Complimentary challenge assays ensured that the observed fluorescence data was due to parasite inhibition and not to quenched fluorescence. Pyrimethamine and sulfadiazine were used as positive controls, and DMSO at a concentration of 0.1% was used as the negative control. Because T. gondii is an obligate parasite, compounds that are toxic to host cells will appear to inhibit parasite growth. Therefore, all test compounds were simultaneously evaluated for efficacy and toxicity against human cells.
Test compounds were dissolved in DMSO to make a 10 mM solution, and subsequently diluted with IMDM-C to the concentrations used in bioassay. In the in vitro experiments DMSO concentration was not greater than 0.1% unless otherwise specified. RH-YFP parasites, which stably express Yellow Florescent Protein, were used. Tachyzoites were extracted from HFF cells by double passage through a 25-gauge needle, centrifuged for 15 minutes at 1500 RPM, and resuspended in IMDM-C. Confluent monolayers of HFF cells were infected with parasites in 96-well plates (Falcon 96 Optilux Flat-bottom) with 3,500 parasites in 100 uL per well. One hour after inoculation, test compounds and control media were added for a final volume of 200 uL per well. Parasite proliferation was assessed using [^3H]-Uracil incorporation or YFP Fluorescence assay.
Human Foreskin Fibroblast (HFF) cells were maintained in confluent monolayers in Iscoves's Modified Dulbecco's Medium supplemented with 10% fetal bovine serum, 1% GlutaMAX and 1% penicillin-streptomycin-fungizone (IMDM-C). T. gondii tachyzoites were cultivated in HFF monolayers. Parasites and cells were maintained at 33° C. or 37° C. and 5% CO2. The strains of parasite used in this study include RH, RH-YFP, and Prugnaud FLUC (Type 2 parasites stably transfected with luciferase), Me49 strain, and TgGoatUS4 isolate.
25 μL of 0.1 mCi/mL*^3H]-Uracil or [^3H]-Thymidine was added to each well 24 hours before reading plates. At harvesting, contents of the wells were transferred onto a 96-well UniFilter GF/C filter plates using a Filtermate 196 cell harvester (Packard). [^3H]-Uracil and [^3H]-Thymidine incorporation was measured using a Microplate Scintillation Luminescence Counter (Packard).
72 hours after initiation of the in vitro challenge assay, parasite proliferation was assessed by reading fluorescence of YFP parasites with a Synergy H4 Hybrid Reader (BioTek) and Gen5 1.10 software, using a bottom optics positions, excitation wavelength of 514 nm, and emission wavelength of 540 nm.

[1] = test system: P. falciparum D6 (CDC/Sierra Leone); assay: Malaria SYBR Green 1-Based Fluorescence (MSF) Assay, strain D6; type: cell-based; settings: for IC50: Plasmodium falciparum
Experimental: Compound activity against P. falciparum, the causative agent of malaria, was assessed using the Malaria SYBR Green 1-Based Fluorescence (MSF) Assay. This microtiter plate drug sensitivity assay uses the presence of malarial DNA as a measure of parasitic proliferation. The assay is a microtiter plate drug sensitivity assay that uses the presence of malarial DNA as a measure of parasitic proliferation in the presence of antimalarial drugs or experimental compounds based on modifications of previously described methods (Plouffe et al., Proc Natl Acad Sci USA. 2008, 105, 9059-9064), (Johnson et al., Antimicrob. Agents Chemother. 2005, 49, 3463-3467).
Selected compounds were examined for activity against two strains of P. falciparum: D6 (CDC/Sierra Leone), a drug-sensitive and readily killed by chloroquine, and TM90-C235, a multi-drug resistant strain resistant to chloroquine.
D6 (CDC/Sierra Leone) and TM90-C235 (WRAIR, Thailand) laboratory strains of P. falciparum were used for each drug sensitivity assessment. The parasite strains were maintained continuously in long-term cultures as previously described in Johnson et al, and P. falciparum strains in late-ring or early-trophozoite stages were cultured in predosed 384-well microtiter drug assay plates in 38 μl culture volume per well at a starting parasitemia of 0.3% and a hematocrit of 2%. Pre-dosed, sterile, 384 well black optical bottom microtiter drug plates for use in the MSF assay were produced using a Tecan EVO Freedom Liquid Handling System (Tecan US, Durham, N.C.). Dose response plates were produced at a final concentration ranging from 0.5-10000 ng/ml in quadruplicate (twelve two-fold serial dilutions of each test compound or chloroquine control in DMSO. Each run was validated by a batch control plate with chloroquine (Sigma-Aldrich Co., Catalog #C6628) at a final concentration of 2000 ng/ml. The cultures were incubated for 72 hours at 37° C., 5% CO2, 5% O2 and 90% N2. Lysis buffer (38 μl per well), consisting of 20 mM Tris HCl, 5 mM EDTA, 1.6% Triton X, 0.016% saponin, and SYBR green I dye at a 20× concentration (Invitrogen, Catalog #S-7567) was then added to the assay plates utilizing the Tecan EVO Freedom system for a final SYBR Green concentration of 10×. Plates were incubated in the dark at room temperature in the dark for 24 hours.
Compound activity was assessed by examining for the relative fluorescence units (RFU) per well using the Tecan Genios Plus (Tecan US, Inc., Durham, N.C.). GraphPad Prism (GraphPad Software Inc., San Diego, Calif.) using the nonlinear regression (sigmoidal dose-response/variable slope) equation was used to determine IC50 values.

RH-YFP tachyzoites = assay: Determination of static or cidal effects; type: cell-based, T. gondii; settings: compound at 1 μM; for static or cidal effect: growth assessed at days 11, 17, 25
Experimental: In order to determine whether leading compounds in this study inhibited parasite proliferation by either a cidal or static mechanism, four were selected (3i, 3j, 7a, and 14a) and applied at four to eight times MICs50 to parasites. In this assay, RH-YFP tachyzoites were treated with each compound at 1 μM under various dosing conditions:
Condition A: Parasites were treated for four days, then compound was removed
Condition B: Parasites were treated for ten days, then compound was removed
Condition C: Compound was refreshed at four days then removed at ten days
Condition D: Compound was maintained for the duration of the experiment
The four and ten day time points were taken to reveal the impact of extended exposure of the parasites to the test substance. Compounds were refreshed at four days to examine whether compound degradation could contribute to an observed static effect. Parasite growth was assessed at days 11, 17, and 25. The growth data, as a function of ^3H-uracil uptake, is expressed in FIG. 7. 4 days, Condition A; 10 days, renewed at 4, Condition B; 10 days, Condition C; All time, Condition D. Ordinate: Counts per minute.
RH-YFP tachyzoites were treated with each compound at 1 μM under one of four conditions: a) parasites were treated for four days, then compound was removed; b) parasites were treated for ten days, then compound was removed; c) compound was refreshed at four days and removed at ten; or d) compound was maintained for the duration of the experiment. The four and ten day time points were taken to reveal the impact of extended exposure of the parasites to the test substance. Compounds were refreshed at four days to examine whether compound degradation could contribute to an observed static effect. Parasite growth was assessed at 11, 17, and 25 days.

[2] = serial dilutions, additional test concentrations, RH-YFP, read-out: IC90
[3] = D6, chloroquine-sensitive strain D6, read-out: D6 IC50
[4] = D6, chloroquine-sensitive strain D6, read-out: D6 IC50 (molar)
[5] = chloroquine-sensitive strain D6
[6] = serial dilutions, additional test concentrations, RH-YFP, read-out: IC50

| Compound | IC50 (T. gondii tachyzoites) | IC90 (T. gondii tachyzoites) | activity against T. gondii tachyzoites, in words (T. gondii tachyzoites) | IC50 ([1]; D6, read-out: D6 IC50) | duration of treatment after which a cidal effect was shown (RH-YFP tachyzoites) | static or cidal effect (RH-YFP tachyzoites) | IC90 (T. gondii tachyzoites; [2]) | IC50 [1, 3] | IC50 [1, 4] | D6 IC50 [1, 5] | IC50 (T. gondii tachyzoites; [6]) | IC50 ([1]; chloroquine-sensitive strain D6, read-out: D6 IC50) |
| --- | --- | --- | --- | --- | --- | --- | --- | --- | --- | --- | --- | --- |
| CN(CC(=O)NN)C(=O)Oc1ccc(Cl)cc1C(=O)Nc1ccc([N+](=O)[O-])cc1Cl.Cl [Compound 14a, 4-chloro-2-((2-chloro-4-nitrophenyl)carbamoyl)phenyl (2-hydrazinyl-2-oxoethyl)(methyl)carbamate hydrochloride] | 16 to 31 nM | 125 to 250 nM | active at low nanomolar concentrations | 1.33 µg/mL | ten days | cidal | – | – | – | – | – | – |
| CC(C)(C)c1cccc(NC(=O)c2cc(Cl)ccc2O)c1 [Compound 3i, N-(3-tert-butylphenyl)-5-chloro-2-hydroxybenzamide] | – | – | active at low nanomolar concentrations | – | – | parasitostatic; also recorded: static effect | 16 to 31 nM | 0.957 µg/mL | 3000 nM | 0.9569 µg/mL | – | – |
| O=C(Nc1cc(C(F)(F)F)cc(C(F)(F)F)c1)c1cc(Cl)ccc1O [Compound 3j] | – | – | active at low nanomolar concentrations; also recorded: promising activity | – | four days | parasitocidal; also recorded: cidal | 125 to 250 nM | – | – | – | 16 to 31 nM | 0.593 µg/mL |
| CN(CC(=O)NN)C(=O)Oc1ccc(Cl)cc1C(=O)Nc1ccc(C(F)(F)F)cc1C(F)(F)F.Cl [Compound 14b, 2-((2,4-bis(trifluoromethyl)phenyl)carbamoyl)-4-chlorophenyl (2-hydrazinyl-2-oxoethyl)(methyl)carbamate hydrochloride] | 125 to 250 nM | 125 to 250 nM | active at low nanomolar concentrations | – | – | – | – | – | – | – | – | – |
| O=C(Oc1ccc(Cl)cc1C(=O)Nc1ccc([N+](=O)[O-])cc1Cl)c1ccccc1 [Compound 7a, 4-chloro-2-((2-chloro-4-nitrophenyl)carbamoyl)phenyl benzoate] | – | – | active at low nanomolar concentrations; also recorded: apparent increase in potency over 4 | – | four days | parasitocidal; also recorded: cidal | 125 to 250 nM | 0.295 µg/mL | 700 nM | 0.2946 µg/mL | 61 to 125 nM | – |
